Experimental data: the NIST ThermoML archive (doi:10.1016/j.fluid.2012.09.019)
± gives the expanded uncertainty stated by the source.

Assays:
[1] = 298.15 K; 101.33 kPa; Liquid; Vibrating tube method
[2] = refractive index (Na D-line) (dimensionless); settings: 298.15 K; 101.33 kPa; Liquid; Standard Abbe refractometry

SMILES	mass density [1]	refractive index [2]
Cc1cccc(C)c1 [1,3-dimethylbenzene]	859.95 ± 0.14 kg/m3	1.4946 ± 0.0008
Cc1ccccc1C [1,2-dimethylbenzene]	859.54 ± 0.14 kg/m3	1.4945 ± 0.0008
Cc1ccc(C)cc1 [1,4-dimethylbenzene]	856.71 ± 0.14 kg/m3	1.4957 ± 0.0008
CCCCCCCCCC [decane]	726.36 ± 0.17 kg/m3	1.4108 ± 0.0008
